# Laboratory results from patent US20230265425A1, “lncRNA-REGULATED GENE EXPRESSION SYSTEM” (MEMORIAL SLOAN KETTERING CANCER CENTER, priority 2020, published 2023).
# Read-outs that look alike come from different tables or passages of the source.
# Assays:
# Pho1 acid phosphatase = assay: Acid phosphatase activity assay of plasmid-bearing pho4Δ pho1Δ cells; settings: for Pho1 activity, % of the level attained with 15 μM thiamine: pTIN-pho1 cells
# Protocol: Acid phosphatase activity assay. Aliquots of exponentially growing cultures were harvested, washed with water, and re-suspended in water. To quantify acid phosphatase activity, reaction mixtures (200 μl) containing 100 mM sodium acetate (pH 4.2), 10 mM p-nitrophenyl phosphate (NEB), and cells (ranging from 0.01 to 0.1 A600 units) were incubated for 5 min at 30° C. The reactions were quenched by addition of 1 ml of 1 M sodium carbonate; the cells were removed by centrifugation and the absorbance of the supernatant was measured at 410 nm. Acid phosphatase activity is expressed as the ratio of A410 (p-nitrophenol production) to A600 (cells). The data are averages (±SEM) of at least three assays using cells from three independent cultures.
# To assay the activity of this promoter system, pho1 was used as the reporter gene driven by the tgp1 promoter (FIG. 1A). Cell surface-associated Pho1 activity is readily assayable colorimetrically via the conversion ofp-nitrophenylphosphate to p-nitrophenol. The pho1 gene was cloned downstream of the tgp1 5′ UTR in the pTIN vector with its native 3′ flanking DNA to yield the pTIN-pho1 plasmid (FIG. 1A). To test background acid phosphatase levels, a promoter-less pTIN pho1 vector was constructed that lacked the DNA segment spanning the regulatory nmt1-promoternc·tgp1·tgp1 promoter region as well as the tgp1 5′ UTR and only contained the pho1 ORF. These plasmids were introduced into a strain in which the chromosomal pho1 and pho4 genes encoding the cell-surface acid phosphatases Pho1 and Pho4 were deleted. Plasmid-bearing pho1Δ pho4Δ cells were grown to mid-log phase in Leu^− PMG medium without thiamine and subsequently diluted and grown in Leu^− PMG medium with or without 15 μM thiamine. Pho1 acid phosphatase activity was measured by incubating dilutions of cells with p-nitrophenylphosphate and measuring its conversion to p-nitrophenol for 5 min at 30° C. The amount of product formed (within the linear range of detection) was normalized to cell density and is plotted on the y-axis in FIG. 1B.
# pho1 mRNA = assay: microbe, parasite or virus in culture; settings: for fold induction at 15 µM: Schizosaccharomyces pombe
# Protocol: Total RNA prepared from harvested samples was analyzed by reverse transcription primer extension using a mixture of radiolabeled primers complementary to the pho1 (top panel) or the act1 (bottom panel) mRNAs. The reaction products were resolved by denaturing urea-PAGE and visualized by autoradiography. The images shown in the top and bottom panels are from a single exposure of one gel. For conciseness of the figure, the intervening lanes of the gel were cropped (represented by the thin line separating the 3 and 10-hour samples). The positions and sizes (in nucleotides) of DNA markers are indicated on the left. Fold-induction reflects the ratio of the act1-normalizedpho1 signal at the indicated time to time-0.
# RNA analysis. Total RNA was extracted via the hot phenol method (Köhrer K. and Domdey H., Method Enzymol: 398-405 (1991), which is hereby incorporated by reference) from 3 A600 units of harvested yeast cells. For analysis of specific transcripts by primer extension, aliquots (5 μg) of total RNA were templated for M-MuLV reverse transcriptase-catalyzed extensions of 5′ 32P-labeled oligodeoxynucleotide primers complementary to the phot and actl mRNAs in one reaction mix. The primer sequence for act1 was, 5′-[…] (SEQ ID NO: 12), and for pho1, 5′-[…] (SEQ ID NO: 13). The primer extension reactions were performed as described by Schwer B., et al., Nucleic Acids Res 26: 2050-2057 (1998), which is hereby incorporated by reference, and the products were analyzed by electrophoresis of the reaction mixtures through a 22-cm 8% polyacrylamide gel containing 7 M urea in 80 mM Tris-borate, 1.2 mM EDTA. The ^32P-labeled primer extension products were visualized by autoradiography of the dried gel. Quantification of pho1 and act1 mRNA levels was done by scanning the dried gel with a phosphorimager and analyzing the data in ImageQuant software.
# Pho1 acid phosphatase activity in pho1Δ pho4Δ A cells bearing the pTIN pho1 plasmid was determined as a function of time after addition of thiamine (FIG. 2A). […] To gauge the level of phol mRNA, primer extension analysis using a pho1-specific radiolabeled primer for reverse-transcription was used, in parallel with an actin gene-specific primer as a control.
compound,measurement,setting,value
Cc1ncc(C[n+]2csc(CCO)c2C)c(N)n1 [thiamine],EC50,"Pho1 acid phosphatase; Schizosaccharomyces pombe, read-out: dose of half maximal response (EC50) of Pho1 activity",69 ± 5 nM
same,fold induction at 15 µM,"Pho1 acid phosphatase; Schizosaccharomyces pombe, read-out: fold induction of Pho1 activity",59
same,"rate of Pho1 activity increase between 7 and 11 hours, % of the initial rate (1 to 7 hours)",Pho1 acid phosphatase; pTIN pho1 cells after addition of 15 μM thiamine,58%
same,fold increase in acid phosphatase activity,"Pho1 acid phosphatase; pTIN pho1 cells, 15 μM thiamine vs thiamine-free medium, 21 hours",58 fold
same,fold increase in Pho1 level over the uninduced state,"Pho1 acid phosphatase; pTIN pho1 cells, 23 hours after addition of 15 μM thiamine",53 fold
same,"Pho1 activity, % of the level attained with 15 μM thiamine",Pho1 acid phosphatase; 0.01 μM thiamine,8%
same,"Pho1 activity, % of the level attained with 15 μM thiamine",Pho1 acid phosphatase; 0.025 μM thiamine,16%
same,"Pho1 activity, % of the level attained with 15 μM thiamine",Pho1 acid phosphatase; 0.05 μM thiamine,33%
same,"Pho1 activity, % of the level attained with 15 μM thiamine",Pho1 acid phosphatase; 0.075 μM thiamine,54%
same,"Pho1 activity, % of the level attained with 15 μM thiamine",Pho1 acid phosphatase; 0.1 μM thiamine,73%
same,"Pho1 activity, % of the level attained with 15 μM thiamine",Pho1 acid phosphatase; 0.3 μM thiamine,93%
same,"Pho1 activity, % of the level attained with 15 μM thiamine",Pho1 acid phosphatase; 3 μM thiamine,96%
same,fold increase in Pho1 activity on addition of thiamine,"Pho1 acid phosphatase; pho1Δ pho4Δ cells bearing pTIN7m pho1, 22 hours",172 fold
same,thiamine concentration at which induction was saturated,Pho1 acid phosphatase; pho1Δ pho4Δ cells bearing pTIN-pho1,≥ 0.3 µM
same,fold induction at 15 µM,"pho1 mRNA; 0.5 h, read-out: pho1 mRNA fold induction (act1-normalized, vs time-0)",25
same,fold induction at 15 µM,"pho1 mRNA; 1 h, read-out: pho1 mRNA maximum fold induction",61
same,transcriptional induction by the addition of thiamine (dynamic range of pTIN system),pho1 mRNA; pTIN system,≤ 60 fold
same,time after induction at which target mRNA levels reach peak,"pho1 mRNA; pTIN system, thiamine induction",≤ 1 h
same,"pho1 mRNA level, fold higher than the uninduced state","pho1 mRNA; pTIN-pho1 cells, all times assayed after 1 hour",approximately 60 fold
